Test results reported in the OligoGym collection.
After the bases stand the sugars from the 5' end (letter, count) and the backbone: PS all phosphorothioate, else s phosphorothioate and o phosphodiester by linkage. Methylation of C is not given here. e = 2'-O-(2-methoxyethyl) (MOE); l = locked nucleic acid (LNA); k = constrained ethyl (cEt); d = 2'-deoxy (DNA)

Legend:
SNHG14 = conditions: ASO
APOL1 = conditions: ASO
[1] = Mouse Primary Neuronal Cell, 0.005 µM

Sequence | target mRNA inhibition (SNHG14; Human Neuronal Cell, 7.5 µM) [%] | target mRNA inhibition (SNHG14; Human Neuronal Cell, 0.2 µM) [%] | target mRNA inhibition (SNHG14; Human Neuronal Cell, 1 µM) [%] | other results
ATCTCATGACCACCTAA (sugars l1 d3 l1 d8 l4, PS) | 58 |  |  | 
TTTTTATACCTTTCTTTAAC (sugars ldlddldddddddlldddll, PS) | 23 |  |  | 
GCTTTTAACCAGAGTGGCAT (sugars l1 d16 l3, PS) | 53 |  |  | 
GCAACATTATTAACCACCT (sugars ldddddddddddlldldll, PS) | 39 |  |  | 
CAGATAACTCTAAACC (sugars l4 d10 l2, PS) |  | 22 | 16 | 
AATGCTCACACTAATT (sugars l4 d10 l2, PS) |  | 37 | 54 | 
TAAAGATCCCATCACT (sugars l4 d10 l2, PS) |  | 31 | 50 | 
AACCAATTATACTTACA (sugars l4 d11 l2, PS) |  | 40 | 51 | 
CAAAGATCATTCTCAAC (sugars l2 d1 l1 d7 l6, PS) | 26 |  |  | 
TTATAGCCATTCTATCT (sugars l3 d12 l2, PS) | 59 |  |  | 
CCTCAACTTCACCAAT (sugars l2 d10 l4, PS) |  | 37 | 49 | 
TTACACATGTATATCC (sugars l3 d10 l3, PS) |  | 41 | 36 | 
ACTGTTTATACCCTTTCC (sugars l1 d3 l1 d11 l2, PS) | 49 |  |  | 
ATTCTCAATTGCACTT (sugars l4 d10 l2, PS) |  | 49 | 58 | 
TGTTTCCATCTACTATTA (sugars lddldddddddddlldll, PS) | 63 |  |  | 
ACTCTGCAATACACCAA (sugars lddldddddddldldll, PS) | 66 |  |  | 
GCAACATTATTAACCACCT (sugars ldlddlddddddlldddll, PS) | 44 |  |  | 
TATCTTTCCATTTATTTCC (sugars l1 d2 l2 d12 l2, PS) | 47 |  |  | 
TAAAATTATTTATACACCAT (sugars l7 d6 l1 d3 l3, PS) | 51 |  |  | 
CTGTATACACCATCCCA (sugars l2 d2 l1 d10 l2, PS) | 60 |  |  | 
GTTACCTACATCTCATA (sugars l2 d13 l2, PS) |  | -14 | 11 | target mRNA inhibition (SNHG14; Human Neuronal Cell, 5 µM): 13%; target mRNA inhibition (SNHG14; [1]): 81%
ATCTTTCCATTTATTTCCA (sugars lddddldddddddddldll, PS) | 31 |  |  | 

Sequence | target mRNA inhibition (SNHG14; Human Neuronal Cell, 7.5 µM) [%] | target mRNA inhibition (SNHG14; Human Neuronal Cell, 0.2 µM) [%] | target mRNA inhibition (SNHG14; Human Neuronal Cell, 1 µM) [%] | other results
ACTCTGCAATACACCAA (sugars l2 d1 l2 d9 l3, PS) | 55 |  |  | 
TGTCATCTACAAATCA (sugars l4 d10 l2, PS) |  | 50 | 46 | 
GTTCTACTATACTTTCCT (sugars l1 d14 l3, PS) | 46 |  |  | 
AATTATTTATACACCATCAT (sugars llddldddddddddldllll, PS) | 70 |  |  | 
CAGGCAGATAACCTCCAA (sugars l3 d12 l3, PS) |  | 12 | 20 | target mRNA inhibition (SNHG14; Human Neuronal Cell, 5 µM): 18%
TGTTTCCATCTACTATTA (sugars ldlldlddddddddddll, PS) | 60 |  |  | 
CAAAGATCATTCTCAACA (sugars l2 d1 l1 d9 l5, PS) | 69 |  |  | 
GCTTTTAACCAGAGT (sugars l3 d9 l3, PS) | 73 |  |  | 
AAAATTATTTATACACCATC (sugars lllldlddddddddldllll, PS) | 59 |  |  | 
ACCTACATCTCATACTT (sugars l3 d11 l3, PS) |  | 1 | -10 | target mRNA inhibition (SNHG14; Human Neuronal Cell, 5 µM): 6%; target mRNA inhibition (SNHG14; [1]): 94.2%
CTTTTAACCAGAGTGGCATC (sugars l2 d16 l2, PS) | 57 |  |  | 
GCACATTCTTTCTATAC (sugars l1 d1 l3 d8 l4, PS) | 59 |  |  | 
TACCTACATCTCATACT (sugars l4 d11 l2, PS) |  | -53 | -18 | target mRNA inhibition (SNHG14; Human Neuronal Cell, 5 µM): 11%; target mRNA inhibition (SNHG14; [1]): 94.4%
TCTACCCTAAATTCCC (sugars l2 d11 l3, PS) |  | 14 | 29 | 
TTGTCAATCTTTATTCT (sugars l4 d11 l2, PS) |  | 33 | 45 | 
TAAAATTATTTATACACCAT (sugars lldlllldddddddllldll, PS) | 26 |  |  | 
TATACCTTTCTTTAACCCTT (sugars lddddldddddddddlddll, PS) | 61 |  |  | 
ATCTCATGACCACCTA (sugars l3 d10 l3, PS) |  | 60 | 70 | 
TATCTTTCCATTTATTTCCA (sugars l2 d16 l2, PS) | -12 |  |  | 
GTTAACCTATATTTCA (sugars l4 d10 l2, PS) |  | 15 | 6 | 
TTTTTTCTTACTATCTTCAA (sugars l1 d13 l1 d2 l3, PS) | 60 |  |  | 
TTATAGCCATTCTATCT (sugars l2 d9 l1 d1 l4, PS) | 49 |  |  | 

Sequence | target mRNA inhibition (SNHG14; Human Neuronal Cell, 7.5 µM) [%] | target mRNA inhibition (SNHG14; Human Neuronal Cell, 0.2 µM) [%] | target mRNA inhibition (SNHG14; Human Neuronal Cell, 1 µM) [%] | other results
CATTTACATTATTATTTAAC (sugars l2 d14 l4, PS) |  | 1 | -3 | 
ATTCAGTTACCAACTA (sugars l3 d10 l3, PS) |  | 39 | 38 | 
TTATAGCCATTCTATCT (sugars l1 d10 l1 d1 l4, PS) | 53 |  |  | 
CAAGTTTCCTATATTC (sugars l4 d10 l2, PS) |  | 62 | 64 | 
AAAATCTCAACTACCATTTT (sugars lldldlddddddddlldlll, PS) | 24 |  |  | 
TATGACTCCAATAATC (sugars l3 d10 l3, PS) |  | 30 | 44 | 
TATCTATTTAATTTACAC (sugars l3 d12 l3, PS) |  | 8 | 0 | 
GTTACATATTCTTTCAC (sugars l3 d11 l3, PS) |  | 53 | 67 | 
TACTATCTTTGACATT (sugars l4 d10 l2, PS) |  | 49 | 58 | 
TTATAGCCATTCTATCT (sugars l3 d9 l1 d2 l2, PS) | 52 |  |  | 
ATTTACACTTAATTATACTT (sugars ldddldldddddddllllll, PS) | 46 |  |  | 
TTCTGTATACACCATCC (sugars ldldlddddddddddll, PS) | 62 |  |  | 
TTCTACTATACTTTCCTCT (sugars ldddddddddddldlddll, PS) | 60 |  |  | 
ATCTCATGACCACCTAA (sugars ldlddddddddddldll, PS) | 61 |  |  | 
CCATTTATTTCCATTTATTT (sugars ldlddlddddddddlddlll, PS) | 59 |  |  | 
AGTTCTACTATACTTTC (sugars l3 d8 l2 d2 l2, PS) | 12 |  |  | 
ATCTTTCCATTTATTTCCA (sugars l1 d1 l1 d14 l2, PS) | 41 |  |  | 
ACTCTGCAATACACCA (sugars l3 d10 l3, PS) |  | 52 | 56 | 
ATCTTTGACATTCCATC (sugars l2 d11 l4, PS) |  | 54 | 61 | 
TCAGAATAATTCTCCT (sugars l3 d10 l3, PS) |  | 49 | 57 | 
GTTTCCATCTACTATTAA (sugars ldldllddddddddddll, PS) | 58 |  |  | 
AACTCTCACTGTAACTT (sugars l3 d11 l3, PS) |  | 32 | 42 | 

Sequence | target mRNA inhibition (SNHG14; Human Neuronal Cell, 7.5 µM) [%] | target mRNA inhibition (SNHG14; Human Neuronal Cell, 0.2 µM) [%] | target mRNA inhibition (SNHG14; Human Neuronal Cell, 1 µM) [%] | other results
TTGATTCAATTCCCTTA (sugars l2 d10 l1 d2 l2, PS) | 69 |  |  | 
TTACACTTAATTATACTTCC (sugars ldddddldddddddldldll, PS) | 61 |  |  | 
TTGATTCAATTCCCTTA (sugars llddldddddddlddll, PS) | 67 |  |  | 
TTATACCTTTCTTTAACCCT (sugars ldlddlddddddddddddll, PS) | 56 |  |  | 
ACTGTTTATACCCTTTC (sugars ldddlddddddlddlll, PS) | 53 |  |  | 
TCCATTTATTTCCATTTAT (sugars l2 d11 l2 d2 l2, PS) | 53 |  |  | 
TTATTCTTACCGTCTTT (sugars l2 d11 l4, PS) |  | 61 | 65 | 
CTTTTAACCAGAGTGGCA (sugars l1 d14 l3, PS) | 61 |  |  | 
ATTGATTCAATTCCCTT (sugars ldlddddddddllldll, PS) | 47 |  |  | 
ATTTATTTCCATTTATTTTC (sugars ldlddlddddddddllldll, PS) | 58 |  |  | 
TACTCTGCAATACACCA (sugars ldddlddddddddldll, PS) | 68 |  |  | 
AGCAACATTATTAACCACC (sugars lddlldddddddlddldll, PS) | 46 |  |  | 
TTTATCAATATCTTCTCACT (sugars lddlddddddddddlddlll, PS) | 53 |  |  | 
AGACTAATCCTCTTAA (sugars l3 d10 l3, PS) |  | 38 | 52 | 
TGAAAATCTCAACTACCAT (sugars ldllddddddddlddldll, PS) | 44 |  |  | 
TTGATTCAATTCCCTTA (sugars l2 d11 l4, PS) |  | 60 | 69 | 
CAACATTATTAACCACCTT (sugars ldlldddddddddddldll, PS) | 58 |  |  | 
ACCTACATCTCATACTT (sugars l2 d13 l2, PS) |  | 3 | -18 | target mRNA inhibition (SNHG14; Human Neuronal Cell, 5 µM): 7%; target mRNA inhibition (SNHG14; [1]): 88.6%
GTATTGCCAGCTAAGG (sugars kddddkekekeddddd, PS) |  |  |  | target mRNA inhibition (APOL1; A431, 2 µM): 70%
GTTATATTTGATCCTC (sugars k2 d4 e3 k2 d5, PS) |  |  |  | target mRNA inhibition (APOL1; A431, 0.0156 µM): 2%; target mRNA inhibition (APOL1; A431, 0.0625 µM): 31%; target mRNA inhibition (APOL1; A431, 0.25 µM): 67%; target mRNA inhibition (APOL1; A431, 1 µM): 89%; target mRNA inhibition (APOL1; A431, 2 µM): 93%
